One test has as its target T1, cyclo-oxygenase (Bos taurus, UniProt O62664).
T1 construct: a cyclo-oxygenase contained in a microsomal preparation of seminal vesicules of bulls; from tissue; host or cells: bull seminal vesicles, microsomal preparation
T1 sequence (O62664 25-600): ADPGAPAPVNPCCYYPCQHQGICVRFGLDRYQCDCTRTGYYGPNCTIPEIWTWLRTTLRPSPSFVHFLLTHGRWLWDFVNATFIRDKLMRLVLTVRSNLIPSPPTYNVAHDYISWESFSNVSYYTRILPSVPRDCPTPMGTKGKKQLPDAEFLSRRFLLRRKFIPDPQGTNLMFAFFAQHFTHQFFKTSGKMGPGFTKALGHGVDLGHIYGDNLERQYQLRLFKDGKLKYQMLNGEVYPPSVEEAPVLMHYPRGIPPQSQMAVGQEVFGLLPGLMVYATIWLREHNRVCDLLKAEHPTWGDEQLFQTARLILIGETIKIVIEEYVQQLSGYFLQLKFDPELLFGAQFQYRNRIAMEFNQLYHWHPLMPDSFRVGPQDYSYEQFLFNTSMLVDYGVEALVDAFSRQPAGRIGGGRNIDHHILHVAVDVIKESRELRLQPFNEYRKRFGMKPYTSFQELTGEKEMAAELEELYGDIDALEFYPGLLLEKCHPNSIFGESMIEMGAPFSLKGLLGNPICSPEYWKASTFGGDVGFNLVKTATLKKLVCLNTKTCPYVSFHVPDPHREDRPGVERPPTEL
Put plainly: Inhibition of biosynthesis of prostaglandins in vitro (microsomal preparation of seminal vesicules). It counts as biochemical, bulls. Here is the method:
B. Inhibition of biosynthesis of prostaglandins in vitro
Arachidonic acid is converted into prostaglandins (PGs) of the […] by a cyclo-oxygenase contained in a microsomal preparation of seminal vesicules of bulls by the method of Tagekuchi et al [Biochemistry, Vol. 10 (1971), P. 2372]. The precursor at a concentration of 15×10^-6 M was incubated in the presence of a fixed concentration of proteins of the seminal vesicule preparation and the test product at 37° C. for 30 minutes. The reaction was stopped by immersion into boiling water for one minute and then centrifugation. The prostaglandins were determined by radio-immunoassay by the procedure of Dray et al [European J. Clin. Invest., Vol. 5 (1975), p. 311] to specifically evaluate for PGE2 and PGF2 α. The CI50 dose or dose that inhibited the activity by 50% was calculated for each of the two prostaglandins and was 2×10^-5 M for the compound of Example 1.

Test [1] concerns adjuvant arthritis (rear paw volume increase). Put plainly: Anti-inflammatory activity, adjuvant arthritis (preventive treatment). Particulars: Rattus norvegicus; male rats, oral, day 0 to day 17, Freund type adjuvant; read-out: DA50 (dose that diminished by 50% the volume increase of the rear paws). Format: in vivo. On the procedure:
A. Anti-inflammatory Activity-adjuvant arthritis (preventive treatment)
The injection of Freund type adjuvant into the rear paw of a rat provokes the rapid appearance of a primary inflammatory lesion in that paw and then after a latent period of 13 to 15 days, the appearance of a secondary arthritic condition occurs in the other rear paw The test was performed on male rats about 40 to 50 days old who received an intraplantary injection of 0.1 ml of Freund type adjuvant (suspension of 6 mg per ml of dead mycobacterium butyrium in vaseline oil). The rats received the test compound orally on day 0 (day of injection of adjuvant) until the day before they were killed (day 17). […] The activity of the test compounds was determined by the increase in the injected rear paw volume (primary and secondary inflammation) and the non-injected rear paw (secondary inflammation) as compared to the average volume of the corresponding paws of the arthritic control animals. The DA50 or the dose that diminished by 50% the volume increase of the rear paws of the treated animals as compared to the control animals was determined to be 8 mg/kg for the compound of Example 1.

The next test addresses T2, 5-lipoxygenase (Rattus norvegicus, UniProt P12527).
T2 construct: Dosage of 5-lipoxygenase of rat neutrophiles; endogenous in cells; host or cells: rat peritoneal neutrophils elicited with sodium caseinate
T2 sequence (P12527 1-673): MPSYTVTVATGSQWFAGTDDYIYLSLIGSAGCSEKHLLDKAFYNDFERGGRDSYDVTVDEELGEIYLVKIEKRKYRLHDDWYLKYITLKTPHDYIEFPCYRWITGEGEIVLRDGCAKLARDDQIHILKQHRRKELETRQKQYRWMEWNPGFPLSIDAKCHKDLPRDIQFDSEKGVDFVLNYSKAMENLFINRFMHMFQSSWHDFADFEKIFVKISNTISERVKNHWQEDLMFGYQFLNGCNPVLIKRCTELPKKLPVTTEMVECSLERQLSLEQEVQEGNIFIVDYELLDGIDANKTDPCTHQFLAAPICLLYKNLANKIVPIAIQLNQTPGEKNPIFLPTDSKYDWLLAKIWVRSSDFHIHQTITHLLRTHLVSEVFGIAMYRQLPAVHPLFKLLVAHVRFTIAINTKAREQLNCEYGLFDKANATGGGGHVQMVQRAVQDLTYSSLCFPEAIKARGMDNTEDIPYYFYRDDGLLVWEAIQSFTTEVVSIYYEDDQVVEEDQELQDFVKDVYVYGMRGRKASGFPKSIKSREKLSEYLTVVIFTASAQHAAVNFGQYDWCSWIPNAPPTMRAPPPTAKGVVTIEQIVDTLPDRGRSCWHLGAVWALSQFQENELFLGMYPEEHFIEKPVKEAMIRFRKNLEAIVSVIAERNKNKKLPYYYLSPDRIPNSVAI
As to the kind of experiment: Dosage of 5-lipoxygenase of rat neutrophiles (Leucotriene B4 by radioimmunoassay). Particulars: rat peritoneal neutrophiles, 10 μM ionophore A 23187, Leucotriene B4; read-out: CI50 5-lipoxygenase. It counts as cell-based. On the procedure:
3. Dosage of 5-lipoxygenase of rat neutrophiles
Peritoneal neutrophile (5×10^6 cells/ml) obtained after intraperitoneal injection of 12% sodium caseinate were preincubated at 37° C. for 5 minutes in the presence of the test product or solvent used. The incubation was effected under the same conditions in the presence of 10 μM of ionophore A 23187 and […] of calcium chloride. After 5 minutes, the incubates were placed in ice and centrifuged at 3000 g.

SMILES strings stand for the structures. pIC50: −log10 of the molar value. Read-outs that look alike come from different tables or passages of the source.

As to `CC(C(=O)O)c1cc2c(s1)C1(CCCCC1)CC2` (stereo not drawn) [Example 1, 4',5'-dihydro-α'-methyl-spiro[cyclohexane-1,6']-6H-[cyclopenta (b)thiophene]-2'-acetic acid], the pIC50 at cyclo-oxygenase (arachidonic acid 15×10^-6 M, 37° C., 30 minutes, PGE2 and PGF2 α by radio-immunoassay, read-out: CI50 (dose that inhibited the activity by 50%), for each of PGE2 and PGF2 α) is 4.70; at 5-lipoxygenase, 5.00. Moreover, the ED50 in test [1] turned out to be 8 mg/kg.
As for `CC(C(=O)N(C)O)c1cc2c(s1)C1(CCCCC1)CC2` (stereo not drawn) [Example 4, 4',5'-dihydro-α',N-dimethyl-N-hydroxy-spiro[cyclohexane-1,6']-6H-[cyclopenta (b)thiophene]-2-acetamide], the pIC50 was 3.70 on cyclo-oxygenase (table value, read-out: CI50 cyclooxygenase) and 6.30 on 5-lipoxygenase.
